Values joined by “and” are separate entries in the source; they are usually repeats but may differ in a detail not shown here. Equal values may be shown once.
Columns and labels:
[1] = test system: turnip or Polish canola (Brassica rapa, BRSRR); assay: Example 5 greenhouse trials, postemergence visual injury; conditions: BRSRR, 20-22 d
[2] = test system: Spring Argentine canola (Brassica napus, BRSNS); assay: Example 3 field trials (Canada), postemergence crop safety, visual phytotoxicity
[3] = BRSNS, trial 1, 17DAA1, 150 g ae/ha
[4] = BRSNS, trial 1, 32DAA1, 150 g ae/ha

SMILES: O=C(O)c1nc(Cl)ccc1Cl [Clopyralid-olamine, 2-hydroxyethanaminium 3,6-dichloro-2-pyridinecarboxylate]
- % Visual Injury Obs ([1]; 50 g ai/ha alone): 0%
- % Visual Injury Obs ([1]; 100 g ai/ha alone): 0%
- % Visual Injury Obs ([1]; 200 g ai/ha alone): 0%
- Mean % Visual Injury ([2]; BRSNS, 7DAAA, 150 g ae/ha (Tables 10, 11)): 0.0%
- Mean % Visual Injury ([2]; BRSNS, 15DAAA, 150 g ae/ha (Tables 10, 11)): 1.5%
- Mean % Visual Injury ([2]; BRSNS, 27DAAA, 150 g ae/ha (Tables 10, 11)): 1.0%
- Mean % Visual Injury ([2]; BRSNS, 57DAAA, 150 g ae/ha (Tables 10, 11)): 2.0%
- Mean % Visual Deformation ([2]; BRSNS, 60DAA1, 150 g ae/ha): 0.0%
- Mean % Visual Injury ([2]; BRSNS, trial 1, 7DAA1, 150 g ae/ha): 1.0%
- Mean % Visual Epinasty [2, 3]: 1.0%
- Mean % Visual Injury [2, 3]: 1.3%
- Mean % Visual Epinasty [2, 4]: 3.5%
- Mean % Visual Injury [2, 4]: 7.0%
- Mean % Visual Injury ([2]; BRSNS, trial 1, 49DAA1, 150 g ae/ha): 2.8%
- Mean % Visual Injury ([2]; BRSNS, trial 2, 8DAA1, 150 g ae/ha): 1.8% and 2.0% and 1.3% and 1.4% and 1.5% and 1.0%
- Mean % Visual Injury ([2]; BRSNS, trial 2, 17DAA1, 150 g ae/ha): 2.5%
- Mean % Visual Epinasty ([2]; BRSNS, trial 2, 35DAA1, 150 g ae/ha): 3.5% and 2.0%
- Mean % Visual Injury ([2]; BRSNS, trial 2, 48DAA1, 150 g ae/ha): 2.0% and 0.8%
- Mean % Visual Epinasty ([2]; BRSNS, trial 3, 6DAA1, 150 g ae/ha): 0.0%
- Mean % Visual Epinasty ([2]; BRSNS, trial 3, 23DAA1, 150 g ae/ha): 0.0%
- Mean % Visual Injury ([2]; BRSNS, trial 3, 33DAA1, 150 g ae/ha): 0.5% and 1.0%
- Mean % Visual Injury ([2]; BRSNS, trial 3, 69DAA1, 150 g ae/ha): 0.0%
- Mean % Visual Injury ([2]; BRSNS, trial 4, 8DAA1, 150 g ae/ha): 1.5%
- Mean % Visual Injury ([2]; BRSNS, trial 4, 15DAA1, 150 g ae/ha): 1.5%
- Mean % Visual Epinasty ([2]; BRSNS, trial 4, 17DAA1, 200 g ae/ha): 0.0%
- Mean % Visual Injury ([2]; BRSNS, trial 4, 41DAA1, 150 g ae/ha): 0.8%
- Mean % Visual Injury ([2]; BRSNS, trial 4, 82DAA1, 150 g ae/ha): 0.0%
- Mean % Visual Injury ([2]; BRSNS, trial 5, 7DAA1, 150 g ae/ha): 0.5% and 0.0% and 1.3% and 1.5%
- Mean % Visual Injury ([2]; BRSNS, trial 5, 15DAA1, 150 g ae/ha): 0.0% and 0.5%
- Mean % Visual Injury ([2]; BRSNS, trial 5, 36DAA1, 150 g ae/ha): 0.5%
- Mean % Visual Injury ([2]; BRSNS, trial 5, 79DAA1, 150 g ae/ha): 0.0%
- Mean % Visual Injury ([2]; BRSNS, trial 6, 6DAA1, 150 g ae/ha): 0.0%
- Mean % Visual Injury ([2]; BRSNS, trial 6, 23DAA1, 150 g ae/ha): 0.0%
- Mean % Visual Injury ([2]; BRSNS, trial 6, 33DAA1, 150 g ae/ha): 2.0%
- Mean % Visual Injury ([2]; BRSNS, trial 6, 59DAA1, 150 g ae/ha): 3.5%
- Mean % Visual Injury ([2]; BRSNS, trial 7, 17DAA1, 100 g ae/ha): 0.0%
- Mean % Visual Injury ([2]; BRSNS, trial 7, 17DAA1, 150 g ae/ha): 0.0%
- Mean % Visual Injury ([2]; BRSNS, trial 7, 17DAA1, 200 g ae/ha): 0.0%
- Mean % Visual Injury ([2]; BRSNS, trial 7, 27DAA1, 150 g ae/ha): 0.0%
- Mean % Visual Injury ([2]; BRSNS, trial 7, 27DAA1, 200 g ae/ha): 3.0%
- Mean % Visual Injury ([2]; BRSNS, trial 8, 7DAA1, 150 g ae/ha): 1.5%
- Mean % Visual Injury ([2]; BRSNS, trial 8, 57DAA1, 150 g ae/ha): 2.3%
- Mean % Visual Injury ([2]; BRSNS, trial 9, 27DAA1, 150 g ae/ha): 1.0%
- Mean % Visual Injury ([2]; BRSNS, trial 9, 60DAA1, 150 g ae/ha): 0.0%
- Mean % Visual Injury ([2]; Table 15, 7DAAA, halauxifen-methyl 5, clopyralid-olamine 150, quinclorac 101 g ae/ha, alone or mixed): 0.0%
- Mean % Visual Injury ([2]; Table 15, 15DAAA, halauxifen-methyl 5, clopyralid-olamine 150, quinclorac 101 g ae/ha, alone or mixed): 1.5%
- Mean % Visual Injury ([2]; Table 15, 27DAAA, halauxifen-methyl 5, clopyralid-olamine 150, quinclorac 101 g ae/ha, alone or mixed): 1.0%
- Mean % Visual Injury ([2]; Table 15, 57DAAA, halauxifen-methyl 5, clopyralid-olamine 150, quinclorac 101 g ae/ha, alone or mixed): 2.0%
- Mean % Visual Injury ([2]; Table 17, 7DAAA, halauxifen-methyl 5, clopyralid-olamine 150 g ae/ha alone, or both mixed with isoxadifen-ethyl 5 g ae/ha): 0.0%
- Mean % Visual Injury ([2]; Table 17, 15DAAA, halauxifen-methyl 5, clopyralid-olamine 150 g ae/ha alone, or both mixed with isoxadifen-ethyl 5 g ae/ha): 1.5%
- Mean % Visual Injury ([2]; Table 17, 27DAAA, halauxifen-methyl 5, clopyralid-olamine 150 g ae/ha alone, or both mixed with isoxadifen-ethyl 5 g ae/ha): 1.0%
- Mean % Visual Injury ([2]; Table 17, 57DAAA, halauxifen-methyl 5, clopyralid-olamine 150 g ae/ha alone, or both mixed with isoxadifen-ethyl 5 g ae/ha): 2.0%
- Mean % Visual Injury ([2]; Table 18, 8DAAA, halauxifen-methyl 5, clopyralid-olamine 150 g ae/ha, alone or mixed): 0.5%
- Mean % Visual Injury ([2]; Table 18, 14DAAA, halauxifen-methyl 5, clopyralid-olamine 150 g ae/ha, alone or mixed): 0.5%
- Mean % Visual Injury ([2]; Table 18, 40DAAA, halauxifen-methyl 5, clopyralid-olamine 150 g ae/ha, alone or mixed): 0.0%
- Mean % Visual Injury ([2]; Table 18, 81DAAA, halauxifen-methyl 5, clopyralid-olamine 150 g ae/ha, alone or mixed): 0.0%
- Mean % Visual Injury ([2]; Table 19, 8DAAA, halauxifen-methyl 5, clopyralid-olamine 150 g ae/ha alone, or both mixed with isoxadifen-ethyl 20 g ae/ha): 0.5%
- Mean % Visual Injury ([2]; Table 19, 14DAAA, halauxifen-methyl 5, clopyralid-olamine 150 g ae/ha alone, or both mixed with isoxadifen-ethyl 20 g ae/ha): 0.5%
- Mean % Visual Injury ([2]; Table 19, 40DAAA, halauxifen-methyl 5, clopyralid-olamine 150 g ae/ha alone, or both mixed with isoxadifen-ethyl 20 g ae/ha): 0.0%
- Mean % Visual Injury ([2]; Table 19, 81DAAA, halauxifen-methyl 5, clopyralid-olamine 150 g ae/ha alone, or both mixed with isoxadifen-ethyl 20 g ae/ha): 0.0%
- Mean % Visual Injury ([2]; Table 22, 8DAAA, halauxifen-methyl 5, clopyralid-olamine 150, quinclorac 101 g ae/ha, alone or mixed): 0.5%
- Mean % Visual Injury ([2]; Table 22, 14DAAA, halauxifen-methyl 5, clopyralid-olamine 150, quinclorac 101 g ae/ha, alone or mixed): 0.5%
- Mean % Visual Injury ([2]; Table 22, 40DAAA, halauxifen-methyl 5, clopyralid-olamine 150, quinclorac 101 g ae/ha, alone or mixed): 0.0%
- Mean % Visual Injury ([2]; Table 22, 81DAAA, halauxifen-methyl 5, clopyralid-olamine 150, quinclorac 101 g ae/ha, alone or mixed): 0.0%
- Mean % Visual Injury ([2]; Table 23, 7DAAA, halauxifen-methyl 5, clopyralid-olamine 150 g ae/ha, alone or mixed): 2.0%
- Mean % Visual Injury ([2]; Table 23, 17DAAA, halauxifen-methyl 5, clopyralid-olamine 150 g ae/ha, alone or mixed): 1.0%
- Mean % Visual Injury ([2]; Table 23, 32DAAA, halauxifen-methyl 5, clopyralid-olamine 150 g ae/ha, alone or mixed): 2.0%
- Mean % Visual Injury ([2]; Table 23, 49DAAA, halauxifen-methyl 5, clopyralid-olamine 150 g ae/ha, alone or mixed): 0.8%
- Mean % Visual Injury ([2]; Table 24, 7DAAA, halauxifen-methyl 5, clopyralid-olamine 150 g ae/ha alone, or both mixed with isoxadifen-ethyl 20 g ae/ha): 2.0%

— patent publication US20170354148A1, “SAFENED HERBICIDAL COMPOSITIONS CONTAINING HALAUXIFEN AND METHODS OF USE THEREOF IN BRASSICA SPECIES” (Dow AgroSciences LLC, priority 2016, published 2017)
